# How the values were obtained:
# [1] = tested on: Honeybees; assay: Brood production in APIDEA nuc colonies; assay type: in vivo, honeybee; conditions: pollen-free diet with isofucosterol vs isofucosterol-free diet, increasing concentration
# Procedure: Honeybees: Fully functional insulated styrofoam APIDEA nucs comprised 5 mini frames populated with adult workers and 1 mated laying queen bee were populated with 300-400 ml of young adult workers (˜N<1,000 bees of mixed ages).
# Each treatment was tested with 3-6 colonies; each colony was fed with a 60-100 g patty (solid diet) on the top feeder fitted with a mesh floor. Diet was fed on the first day and again on day 6; the quantity consumed was measured on day 6 and day 15. If no larvae or eggs/queen are observed by day 6 then the experiment is terminated. The number of capped brood cells was counted on day 15. The number of bee seams was estimated during each inspection. Sugar syrup (34%) and water was provided in feeders inside the tent to prevent carbohydrate starvation and to stimulate foraging activity.
# In Example 3, bees were fed with a diet containing 10-18% protein, 6% fat, 1% vitamins/minerals and >75% carbohydrates.
# As the concentration of isofucosterol increased, the amount of brood produced in each colony increased (N>3 colonies/treatment). The pupae, and the number of new adults was counted over the entire 10-week period.
# [2] = tested on: adult worker honeybees; assay: Survival of cohorts of bees on diets containing isofucosterol; assay type: in vivo, honeybee; conditions: pollen-free diet with isofucosterol vs isofucosterol-free diet
# Procedure: Newly emerged adult worker honeybees fed with a diet treatment and ad libitum access to water. The treatment diet contained the isofucosterol. Newly emerged bees were removed from the brood frame and cohorts of 30 bees per replicate were housed in plastic rearing cages. In all experiments, 10 cohorts of ˜30 bees each were used for each treatment group. In all diet's carbohydrate was maintained at 60% using sucrose and fat was maintained at 8%. Consumption of each diet was measured every day over the course of the experiment. The number of bees alive in the box was counted each day for 14 days.
# Example 2 represents the survival of cohorts of bees confined to feed on diets containing specific concentrations of isofucosterol (0%, 0.5% and 1% weight of diet), as shown in FIG. 2.
# [3] = tested on: Black soldier flies; assay: Black soldier fly feeding experiments; assay type: in vivo, Hermetia illucens
# Procedure: Adult survival and number of egg masses laid from a population fed with a pollen substitute diet (as specified in US2019/0090507 to Apix Biosciences) was measured daily using the methods of rearing described in Thinn and Kainoh 2022. JARQ 56 (2), 211-217 (2022). […] Black soldier fly (BSF) larvae were fed with a diet containing 22% protein, 4% fat as described in Hogsette 1992. J. Econ. Entomol. 85(6): 2291-2294 until ecclosion. Sterols were sourced as pure compounds added directly to diet to a total quantity of 0.1%. […] J. Entomol. 118: 297-306, 2021. […] Sterols were added to diet. Measurement of sterols in tissues was performed after saponification of BSF tissues using GC-MS as described in Boukid et al. 2022. Insects 12, 672.
# [4] = tested on: adult worker honeybees (Apis mellifera) or adult worker bumblebees (Bombus terrestris); assay: Two-choice preference assay, diet with or without isofucosterol; assay type: in vivo; conditions: choice of diet with or without isofucosterol, 5 days, FIG. 1
# Procedure: One treatment diet contained the isofucosterol and the other contained no sterol. Newly emerged bees were removed from the brood frame and cohorts of 30 bees per replicate were housed in plastic rearing cages. In all experiments, 10 cohorts of ˜30 bees each were used for each treatment group. […] Consumption of each diet was measured every 24 h for 5 days. Preference index was calculated as (amount of treatment consumed−amount of control consumed)/(total amount of food consumed). In Example 1, cohorts of bees were given a choice of diet with or without isofucosterol.
# [5] = tested on: Honeybees; assay: Long term Apidea experiment with bees fed a multiplicity of sterols; assay type: in vivo, honeybee; conditions: diet with isofucosterol and multiplicity of sterols; cycles of 21 days
# Procedure: Honeybees: Fully functional insulated styrofoam Apidea™ nucs comprised 3-5 mini frames populated with adult workers and 1 mated laying queen bee were populated with 300-400 ml of young adult workers (˜N<1,000 bees of mixed ages).
# Each treatment was tested with 3-6 colonies, each colony was fed ad libitum with the solid diet on the top feeder fitted with a mesh floor, and the quantity consumed was assessed at every feeding. The number of capped brood cells was assessed every 12 days. The number of bee seams was recorded during each inspection. If the colony reaches maximal size for the Apidea box, a super is added. Sugar syrup (34%) and water was provided in feeders inside the tent to prevent carbohydrate starvation and to stimulate foraging activity.
# In Example 4A, bees were fed with a diet containing 15-30% protein, 4-12% fat, 1% vitamins/minerals and >40% carbohydrates (Diet 1). […]
# FIG. 4—results of experiment 4A: Mean area of sealed brood (cm2) assessed every 12 days over a 15-week period. […]
structure (smiles),measurement,setting,value
"C/C=C(/CC[C@@H](C)[C@H]1CC[C@H]2[C@@H]3CC=C4C[C@@H](O)CC[C@]4(C)[C@H]3CC[C@]12C)C(C)C [isofucosterol, Isofucosterol]",bee brood production,[1],increased
same,bee brood production,[1]; listed as Isofucosterol,increases
same,survival of worker bees,[2],increases
same,egg laying and egg hatching performance and adult longevity,[3]; cultivated Black Soldier Fly or beetle adults fed diet containing isofucosterol,improves
same,performance of adult and larval BSF,[3]; isofucosterol delivered through a pollen-free diet,increases the performance
same,isofucosterol concentration in the diet that bees preferred to consume,[4],at least 0.05%
same,brood production / brood development supported,[5],more than 4 cycles

# Source: US20240315283A1, “ISOFUCOSTEROL A KEY NUTRIENT FOR PHYTOSTEROL EATING ANIMALS SUCH AS POLLEN EATING AND ALGAE-EATING AND PLANKTON EATING ORGANISMS” (APIX BIOSCIENCES, priority 2021, published 2024)
